Literature values as cited in patent US6653500B2, “Method for the manufacture of Anagrelide” (Shire US Inc., priority 2000, dated 2003).
Where two headings read alike, the source gives them in different places.

What was measured:
[1] = monkeys, radiolabeled base
[2] = solid
[3] = humans, radiolabeled base

In the case of `O=C1CN2Cc3c(ccc(Cl)c3Cl)N=C2N1` [compound III, 6,7-dichloro-1,5-dihydroimidazo[2,1-b]quinazolin-2(3H)-one], the “absorption into blood plasma” value [1] is listed as “complete absorption”, the aqueous solubility [2] is listed as “low” and the “solubility in most organic solvents” value is listed as “low”. For the same compound, the “absorption into blood plasma” value [3] was “complete absorption”.
